Test systems include NCI-H522 lung; UACC-62 melanoma; LOX IMVI melanoma; MALME-3M melanoma; SNB-19 CNS; SK-MEL-28 melanoma; SK-MEL-5 melanoma; SF-268 CNS; SN12C renal; RXF 393 renal; T-47D breast; SR leukemia; OVCAR-3 ovarian.
Test in all cases: NCI tumour cell line growth inhibition, 48 h

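Tested at 5 concentrations; 48 h exposure; 96-well plates; endpoints linearly interpolated, else capped at highest concentration. At the TGI there is no net growth.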

Regarding `c1ccc(CSCCC(SCc2ccccc2)SCc2ccccc2)cc1`, the TGI in the test on NCI-H522 lung, in the test on UACC-62 melanoma, in the test on LOX IMVI melanoma, in the test on MALME-3M melanoma, in the test with SNB-19 CNS and with SK-MEL-28 melanoma was > 10 µM in each case. Also, the TGI in the test with SK-MEL-5 melanoma, with SF-268 CNS, in the test with SN12C renal, in the test on RXF 393 renal, in the test on T-47D breast and in the test with SR leukemia was > 10 µM in each case. Moreover, in the test with OVCAR-3 ovarian, the TGI was > 10 µM.
With `N#Cc1ccccc1NC(=O)C(O)C(O)C(O)C(O)C=O` (configuration not stated), the TGI with NCI-H522 lung, in the test on UACC-62 melanoma, in the test with LOX IMVI melanoma, in the test on MALME-3M melanoma, in the test on SNB-19 CNS and in the test on SK-MEL-28 melanoma was > 100 µM throughout. Further, the TGI in the test with SK-MEL-5 melanoma, with SF-268 CNS, with SN12C renal, with RXF 393 renal, in the test on T-47D breast and in the test on SR leukemia was > 100 µM throughout. Further, the TGI in the test with OVCAR-3 ovarian is > 100 µM.
On to `CN(C)/C=N/S(=O)(=O)c1nn2c(C=O)c(-c3ccc(-c4ccccc4)cc3)nc2s1`, for which the TGI in the test on NCI-H522 lung is 1.6 µM; in the test with UACC-62 melanoma, 6.45 µM; in the test on LOX IMVI melanoma, 2.76 µM; in the test with MALME-3M melanoma, 2.71 µM; in the test with SNB-19 CNS, 25.5 µM; in the test on SK-MEL-28 melanoma it was 4.33 µM. The TGI in the test with SK-MEL-5 melanoma came to 3.04 µM; in the test on SF-268 CNS it was 6.23 µM; with SN12C renal, 3.19 µM; with RXF 393 renal, 4.49 µM; with T-47D breast it was 5.57 µM; in the test with SR leukemia it was 1.89 µM. Also, the TGI in the test with OVCAR-3 ovarian is 3.73 µM.
For `CC(Oc1ccc(Cl)cc1Cl)C(=O)NN1C(=O)CC(=O)NC1=S` (configuration not stated), the TGI with NCI-H522 lung, in the test on UACC-62 melanoma, with LOX IMVI melanoma, in the test with MALME-3M melanoma, with SNB-19 CNS and in the test on SK-MEL-28 melanoma was > 100 µM throughout. Besides, the TGI with SK-MEL-5 melanoma, in the test on SF-268 CNS, in the test on SN12C renal, with RXF 393 renal, in the test on T-47D breast and in the test with SR leukemia was > 100 µM in each case. In addition, the TGI in the test with OVCAR-3 ovarian was > 100 µM.
On to `CCSc1c2cc(OC)ccc2nc2ccc(OC)cc12`, for which the TGI with NCI-H522 lung was > 48.2 µM; in the test on UACC-62 melanoma, 47.8 µM; in the test with LOX IMVI melanoma it was > 76.9 µM; in the test on MALME-3M melanoma, 28.7 µM; in the test on SNB-19 CNS, > 100 µM; with SK-MEL-28 melanoma, > 59.2 µM. In addition, the TGI was 30.3 µM in the test on SK-MEL-5 melanoma; > 58.6 µM with SF-268 CNS; 50.9 µM in the test on SN12C renal; 63 µM in the test on RXF 393 renal; > 69.7 µM in the test on T-47D breast; > 23.5 µM with SR leukemia. Also, in the test with OVCAR-3 ovarian, the TGI is > 61.2 µM.
Take `CCOC(=O)C1=C(C)N(Cc2ccccc2)C2(O)C=CC(=O)C3C(=O)N(c4ccccc4)C(=O)C132` (configuration not stated): the TGI was determined as 3.32 µM with NCI-H522 lung; 4.01 µM in the test on UACC-62 melanoma; 3.43 µM in the test with LOX IMVI melanoma; 7.68 µM in the test on MALME-3M melanoma; 21.4 µM in the test on SNB-19 CNS; 3.54 µM in the test with SK-MEL-28 melanoma. In addition, the TGI came out at 12.8 µM in the test with SK-MEL-5 melanoma; 7.81 µM with SF-268 CNS; 10.6 µM with SN12C renal; 2.94 µM in the test on RXF 393 renal; 9.27 µM in the test with T-47D breast; 2.88 µM with SR leukemia. Also, the TGI with OVCAR-3 ovarian came to 6.08 µM.
As for `O=C(NC1C(=O)NC(CCc2ccccc2)NC1=O)OCc1ccccc1` (configuration not stated), the TGI in the test on NCI-H522 lung, in the test with UACC-62 melanoma, in the test on LOX IMVI melanoma, with MALME-3M melanoma, in the test with SNB-19 CNS and with SK-MEL-28 melanoma was > 100 µM throughout. The TGI with SK-MEL-5 melanoma, in the test on SF-268 CNS, in the test with SN12C renal, with RXF 393 renal, with T-47D breast and in the test with SR leukemia was > 100 µM throughout. Moreover, the TGI with OVCAR-3 ovarian is > 100 µM.
Consider `NC(N)=NS(=O)(=O)c1ccc(NCc2cccc3c(=O)c4ccc(Cl)cc4oc23)cc1`, for which the TGI in the test on NCI-H522 lung was > 7.85 µM; in the test on UACC-62 melanoma, > 24.1 µM; with LOX IMVI melanoma, > 11.3 µM; in the test with MALME-3M melanoma, > 19.2 µM; with SNB-19 CNS it was 22.2 µM; in the test on SK-MEL-28 melanoma, > 23.6 µM. The TGI is > 16.5 µM in the test on SK-MEL-5 melanoma; 12.7 µM in the test with SF-268 CNS; > 14.2 µM in the test on SN12C renal; 7.17 µM with RXF 393 renal; > 23.7 µM in the test with T-47D breast; > 25 µM with SR leukemia. In the test with OVCAR-3 ovarian, the TGI is > 18.3 µM.
With `CC(C)(C(=O)N(C(=O)N1CCN(c2ccccc2)CC1)S(=O)(=O)c1ccccc1)c1ccc(Cl)cc1`, the TGI was 26.3 µM with NCI-H522 lung; > 100 µM in the test with UACC-62 melanoma; > 100 µM in the test with LOX IMVI melanoma; > 100 µM in the test with MALME-3M melanoma; > 100 µM in the test with SNB-19 CNS; > 100 µM in the test on SK-MEL-28 melanoma. For the same compound, the TGI in the test on SK-MEL-5 melanoma, in the test with SF-268 CNS, in the test on SN12C renal, in the test on RXF 393 renal, in the test on T-47D breast and in the test on SR leukemia was > 100 µM each time. In the test with OVCAR-3 ovarian, this compound gave a TGI of 99.3 µM.

The values are drawn from PubChem BioAssay (NCI).
